# Source: patent publication US8741926B2, “Macrocyclic inhibitors of hepatitis C virus” (Tibotec Pharmaceuticals Ltd., priority 2005, dated 2014)
# Where two headings read alike, the source gives them in different places.
# Experiments:
# [1] = rcm bond, 14-membered ring, 1,2-dichloroethane
# [2] = test system: HCV type 1b replicon in Huh-7 luc/neo (Huh-Luc) cells; experiment: Replicon assay: inhibition of HCV RNA replication in Huh-Luc cells (luciferase); assay type: cell-based; conditions: luciferase activity, incubation of three days
# Method: The in vitro antiviral activity against HCV of the compounds of formula (I) was tested in a cellular HCV replicon system based on Lohmann et al. (1999) Science 285:110-113, with the further modifications described by Krieger et al. (2001) Journal of Virology 75: 4614-4624, which is further exemplified in the examples section. This model, while not a complete infection model for HCV, is widely accepted as the most robust and efficient model of autonomous HCV RNA replication currently available. […] It will be appreciated that it is important to distinguish between compounds that specifically interfere with HCV functions from those that exert cytotoxic or cytostatic effects in the HCV replicon model, and as a consequence cause a decrease in HCV RNA or linked reporter enzyme concentration. Assays are known in the field for the evaluation of cellular cytotoxicity based for example on the activity of mitochondrial enzymes using fluorogenic redox dyes such as resazurin. Furthermore, cellular counter screens exist for the evaluation of non-selective inhibition of linked reporter gene activity, such as firefly luciferase. Appropriate cell types can be equipped by stable transfection with a luciferase reporter gene whose expression is dependent on a constitutively active gene promoter, and such cells can be used as a counter-screen to eliminate non-selective inhibitors.
# The compounds of formula (I) were examined for activity in the inhibition of HCV RNA replication in a cellular assay. […] The cellular assay was based on a bicistronic expression construct, as described by Lohmann et al. (1999) Science vol. 285 pp. 110-113 with modifications described by Krieger et al. (2001) Journal of Virology 75: 4614-4624, in a multi-target screening strategy. In essence, the method was as follows.
# The assay utilized the stably transfected cell line Huh-7 luc/neo (hereafter referred to as Huh-Luc). This cell line harbors an RNA encoding a bicistronic expression construct comprising the wild type NS3-NS5B regions of HCV type 1b translated from an Internal Ribosome Entry Site (IRES) from encephalomyocarditis virus (EMCV), preceded by a reporter portion (FfL-luciferase), and a selectable marker portion (neo^R, neomycine phosphotransferase). The construct is bordered by 5′ and 3′ NTRs (non-translated regions) from HCV type 1b. Continued culture of the replicon cells in the presence of G418 (neo^R) is dependent on the replication of the HCV RNA. The stably transfected replicon cells that express HCV RNA, which replicates autonomously and to high levels, encoding inter alia luciferase, are used for screening the antiviral compounds.
# The replicon cells were plated in 384 well plates in the presence of the test and control compounds which were added in various concentrations. Following an incubation of three days, HCV replication was measured by assaying luciferase activity (using standard luciferase assay substrates and reagents and a Perkin Elmer ViewLux™ ultraHTS microplate imager). Replicon cells in the control cultures have high luciferase expression in the absence of any inhibitor. The inhibitory activity of the compound on luciferase activity was monitored on the Huh-Luc cells, enabling a dose-response curve for each test compound.
# HCV NS3/4A protease = HCV NS3/4A protease (Hepatitis C virus genotype 1a (isolate H77) (HCV), UniProt P27958); experiment: Inhibition assay (enzymatic assay) of full-length NS3 protease with NS4A cofactor; assay type: biochemical; conditions: full-length NS3 protease 1 nM, 25 μM NS4A cofactor, depsipeptide substrate, competitive inhibition model; read-out: Ki (μM) Enzymatic assay
# Sequence of HCV NS3/4A protease (P27958 1027-1657): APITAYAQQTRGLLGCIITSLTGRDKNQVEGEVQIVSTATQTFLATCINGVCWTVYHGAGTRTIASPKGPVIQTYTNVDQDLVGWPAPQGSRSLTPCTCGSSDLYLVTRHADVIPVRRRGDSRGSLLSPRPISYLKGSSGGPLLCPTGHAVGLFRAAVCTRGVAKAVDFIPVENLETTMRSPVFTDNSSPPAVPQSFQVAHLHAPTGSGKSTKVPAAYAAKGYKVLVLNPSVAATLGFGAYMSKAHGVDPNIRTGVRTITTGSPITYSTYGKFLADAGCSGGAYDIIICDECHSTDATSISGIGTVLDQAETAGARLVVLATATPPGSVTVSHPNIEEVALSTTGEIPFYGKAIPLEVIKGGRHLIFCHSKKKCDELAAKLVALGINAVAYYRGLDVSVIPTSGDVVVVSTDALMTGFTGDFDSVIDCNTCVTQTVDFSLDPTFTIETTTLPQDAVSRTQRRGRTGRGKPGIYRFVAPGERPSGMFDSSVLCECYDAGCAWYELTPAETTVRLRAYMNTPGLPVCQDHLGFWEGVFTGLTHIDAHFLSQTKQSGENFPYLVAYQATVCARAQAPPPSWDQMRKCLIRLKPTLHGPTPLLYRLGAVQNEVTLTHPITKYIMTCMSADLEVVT
# Method: [Landro, 1997 #Biochem 36 9340-9348]. […] The solutions were stored at −20° C. between measurements.
# [Liu, 1999 Analytical Biochemistry 267 331-335].
Compound,"EC50 ([2]; Hepatitis C virus, Huh-7, 72 h) [µM]",Ki (HCV NS3/4A protease) [nM],further results
CCOC(=O)C12CC1C=CCCCCN(C)C(=O)C1CC(Oc3cc(-c4cccc(C(C)C)n4)nc4c(C)c(OC)ccc34)CC1C(=O)N2 (centres unmarked),–,–,"ring closure, isolated yield ([1]; from C=CCCCCN(C)C(=O)C1CC(Oc2cc(-c3cccc(C(C)C)n3)nc3c(C)c(OC)ccc23)CC1C(=O)NC1(C(=O)OCC)CC1C=C, Hoveyda-Grubbs I (3 portions), 17.0 h): 66%"
CCOC(=O)C12CC1C=CCCCCN(C)C(=O)C1CC(Oc3cc(-c4cccc(C)n4)nc4c(C)c(OC)ccc34)CC1C(=O)N2 (centres unmarked),–,–,"ring closure, isolated yield ([1]; from C=CCCCCN(C)C(=O)C1CC(Oc2cc(-c3cccc(C)n3)nc3c(C)c(OC)ccc23)CC1C(=O)NC1(C(=O)OCC)CC1C=C, Hoveyda-Grubbs II, 1.48 mM, 16.0 h): 58%"
"COc1ccc2c(O[C@@H]3C[C@H]4C(=O)N[C@]5(C(=O)NS(=O)(=O)C6CC6)C[C@H]5/C=C\CCCCCNC(=O)N4C3)cc(-c3nc(C(C)C)cs3)nc2c1C (stereo in doubt) [Compound 91, N-[[18-[2-[4-(isopropyl)thiazol-2-yl]-7-methoxy-8-methylquinolin-4-yloxy]-2,15-dioxo-3,14,16-triazatricyclo[14.3.0.0^4,6]nonadec-7-en-4-yl]carbonyl]-(cyclopropyl)sulfonamide]",0.00854,0.05,–
"COc1ccc2c(O[C@@H]3C[C@H]4C(=O)N[C@]5(C(=O)NS(=O)(=O)C6CC6)C[C@H]5/C=C\CCCCCNC(=O)N4C3)cc(-c3nc(C(C)C)cs3)nc2c1Cl (stereo in doubt) [Compound 94, N-[[18-[8-chloro-2-[4-(isopropyl)thiazol-2-yl]-7-methoxyquinolin-4-yloxy]-2,15-dioxo-3,14,16-triazatricyclo[14.3.0.0^4,6]nonadec-7-en-4-yl]carbonyl]-(cyclopropyl)sulfonamide]",0.00326,0.1,–
"COc1ccc2c(O[C@@H]3C[C@H]4C(=O)N[C@]5(C(=O)NS(=O)(=O)C6(C)CC6)C[C@H]5/C=C\CCCCCNC(=O)N4C3)cc(-c3nc(C(C)C)cs3)nc2c1Cl (stereo in doubt) [Compound 95, N-[[18-[8-chloro-2-[4-(isopropyl)thiazol-2-yl]-7-methoxyquinolin-4-yloxy]-2,15-dioxo-3,14,16-triazatricyclo[14.3.0.0^4,6]nonadec-7-en-4-yl]carbonyl](1-methylcyclopropyl)sulfonamide]",0.00404,0.1,–
"COc1ccc2c(O[C@@H]3C[C@H]4C(=O)N[C@]5(C(=O)O)C[C@H]5/C=C\CCCCN(C)C(=O)[C@@H]4C3)cc(-c3nccs3)nc2c1C [Compound 29, 17-[7-methoxy-8-methyl-2-(thiazol-2-yl)quinolin-4-yloxy]-13-methyl-2,14-dioxo-3,13-diazatricyclo[13.3.0.0^4,6]octadec-7-ene-4-carboxylic acid]",10,–,–
"COc1ccc2c(O[C@@H]3C[C@H]4C(=O)N[C@]5(C(=O)O)C[C@H]5/C=C\CCCCN(C)C(=O)[C@@H]4C3)cc(-c3nc(C(C)C)cs3)nc2c1C [Compound 46, 17-[2-(4-isopropylthiazole-2-yl)-7-methoxy-8-methyl-quinolin-4-yloxy]-13-methyl-2,14-dioxo-3,13-diazatricyclo[13.3.0.0^4,6]octadec-7-ene-4-carboxylic acid]",0.91,–,–
"COc1ccc2c(O[C@@H]3C[C@H]4C(=O)N[C@]5(C(=O)NS(=O)(=O)C6(C)CC6)C[C@H]5/C=C\CCCCN(C)C(=O)[C@@H]4C3)cc(-c3nc(C(C)C)cs3)nc2c1C [Compound 48, N-[17-[2-(4-isopropylthiazole-2-yl)-7-methoxy-8-methylquinolin-4-yloxy]-13-methyl-2,14-dioxo-3,13-diazatricyclo[13.3.0.0^4,6]octadec-7-ene-4-carbonyl](1-methylcyclopropyl)sulfonamide]",0.00233,0.25,–
"COc1ccc2c(O[C@@H]3C[C@H]4C(=O)N[C@]5(C(=O)O)C[C@H]5/C=C\CCCCN(C)C(=O)[C@@H]4C3)cc(-c3nc(C(C)C)cs3)nc2c1Cl [Compound 55, 17-[8-chloro-2-(4-isopropylthiazole-2-yl)-7-methoxyquinolin-4-yloxy]-13-methyl-2,14-dioxo-3,13-diazatricyclo[13.3.0.0^4,6]octadec-7-ene-4-carboxylic acid]",0.367,5,–
"COc1ccc2c(O[C@@H]3C[C@H]4C(=O)N[C@]5(C(=O)NS(=O)(=O)C6CC6)C[C@H]5/C=C\CCCCN(C)C(=O)[C@@H]4C3)cc(-c3nc(C(C)C)cs3)nc2c1Cl [Compound 56, N-[17-[8-chloro-2-(4-isopropylthiazole-2-yl)-7-methoxyquinolin-4-yloxy]-13-methyl-2,14-dioxo-3,13-diazatricyclo[13.3.0.0^4,6]-octadec-7-ene-4-carbonyl](cyclopropyl)sulfonamide]",0.00293,–,–
"COc1ccc2c(O[C@@H]3C[C@H]4C(=O)N[C@]5(C(=O)NS(=O)(=O)C6(C)CC6)C[C@H]5/C=C\CCCCN(C)C(=O)[C@@H]4C3)cc(-c3nc(C(C)C)cs3)nc2c1Cl [Compound 57, N-[17-[8-chloro-2-(4-isopropylthiazole-2-yl)-7-methoxy-quinolin-4-yloxy]-13-methyl-2,14-dioxo-3,13-diazatricyclo[13.3.0.0^4,6]octadec-7-ene-4-carbonyl] (1-methylcyclopropyl)sulfonamide]",0.00187,0.3,–
"COc1ccc2c(O[C@@H]3C[C@H]4C(=O)N[C@]5(C(=O)NS(=O)(=O)C6CC6)C[C@H]5/C=C\CCCCN(C)C(=O)[C@@H]4C3)cc(-n3ccc(C(C)C)n3)nc2c1C [Compound 66, N-[17-[2-(3-isopropylpyrazol-1-yl)-7-methoxy-8-methyl-quinolin-4-yloxy]-13-methyl-2,14-dioxo-3,13-diazatricyclo[13.3.0.0^4,6]octadec-7-ene-4-carbonyl](cyclopropyl)sulfonamide]",0.0036,–,–
CCc1c(OC)ccc2c(O[C@@H]3C[C@H]4C(=O)N[C@]5(C(=O)NS(=O)(=O)C6CC6)C[C@H]5/C=C\CCCCN(C)C(=O)[C@@H]4C3)cc(-c3nc(C(C)C)cs3)nc12 [Compound 72],0.066,–,–
COc1ccc2c(O[C@@H]3C[C@H]4C(=O)N[C@]5(C(=O)NS(=O)(=O)C6CC6)C[C@H]5/C=C\CCCCN(C)C(=O)[C@@H]4C3)cc(-c3nc(C(C)C)cs3)nc2c1F [Compound 75],0.0575,–,–
COc1ccc2c(O[C@H]3C[C@H]4C(=O)NCCCCC/C=C\[C@@H]5C[C@@]5(C(=O)NS(=O)(=O)C5CC5)NC(=O)[C@@H]4C3)cc(-c3nc(C(C)C)cs3)nc2c1C [Compound 82],8.32,9.4,–
"COc1ccc2c(O[C@@H]3C[C@H]4C(=O)N[C@]5(C(=O)NS(=O)(=O)C6CC6)C[C@H]5/C=C\CCCCN(C)C(=O)[C@@H]4C3)cc(-c3cccc(C)n3)nc2c1C [Compound 103, Cyclopropanesulfonic acid {17-[2-(6-methyl-2-pyridyl)-7-methoxy-8-methyl-quinolin-4-yloxy]-13-methyl-2,14-dioxo-3,13-diaza-tricyclo[13.3.0.0^4,6]octadec-7-ene-4-carbonyl}-amide]",0.0063,–,–
"N-[17-[8-ethyl-2-(4-isopropylthiazole-2-yl)-7-methoxyquinolin-4-yloxy]-13-methyl-2,14-dioxo-3,13-diazatricyclo[13.3.0.0^4,6]octadec-7-ene-4-carbonyl](cyclo-propyl)sulfonamide [Compound 71]",–,–,EC50 [2]: 10 µM
"N-[18-[2-(4-isopropylthiazole-2-yl)-7-methoxy-8-methylquinolin-4-yl-oxy]-2,15-dioxo-3,14-diazatricyclo[14.3.0.0^4,6]nonadec-7-ene-4-carbonyl](cyclo-propyl)sulfonamide [Compound 81]",–,1000,EC50 [2]: 10 µM
